In US20260070945A1, “MACROCYCLIC IMMUNOMODULATORS” (Bristol-Myers Squibb Company, priority 2022, published 2026):
Where a SMILES comes first, the peptide text is derived from it. Bridges are numbered along the chain shown (N, C = ends). [ ]: non-standard residue; d: D form. The star is where a group is joined. Bip = N[C@@H](Cc1ccc(-c2ccccc2)cc1)C(=O)O; Phe(3-Me) = Cc1cccc(C[C@H](N)C(=O)O)c1; Cha = N[C@@H](CC1CCCCC1)C(=O)O; Cit = NC(=O)NCCC[C@H](N)C(=O)O; Carboxymethyl = O=C(O)C*; NMeA = CN[C@@H](C)C(=O)O; Orn = NCCC[C@H](N)C(=O)O; Aun = NCCCCCCCCCCC(=O)O; Dab = NCC[C@H](N)C(=O)O; AEEA = NCCOCCOCC(=O)O

Molecular target: T1, PD-1/PD-L1 interaction (PE-labeled human PD-L1-Ig binding to Jurkat cell line over-expressing human PD-1) (Homo sapiens, UniProt Q15116)
T1 construct: expressed in transfected cells; host or cells: Jurkat
T1 sequence (Q15116 25-288): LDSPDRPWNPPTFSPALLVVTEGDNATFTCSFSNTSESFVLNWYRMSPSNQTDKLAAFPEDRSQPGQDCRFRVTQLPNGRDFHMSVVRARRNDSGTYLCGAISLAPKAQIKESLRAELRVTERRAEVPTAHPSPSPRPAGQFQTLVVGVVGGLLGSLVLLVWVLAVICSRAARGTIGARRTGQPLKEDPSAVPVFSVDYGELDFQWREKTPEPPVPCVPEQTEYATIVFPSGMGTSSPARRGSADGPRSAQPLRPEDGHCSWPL
Assay: Jurkat-PD-1 Cell Binding High-Content Screening Assay (CBA)
Details: Jurkat-hPD-1 cells, PE-labeled PD-L1-Ig 20 nM final; read-out: Jurkat HPD1 PDL1 IC50
How it was run: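 Read-out: high-content imaging of cell-bound PE fluorescence, with Hoechst 33342 nuclear counterstain after paraformaldehyde fixation. Before labeled ligand (20 nM final, 1 h) was added, compound sat on the cells for 2 h at 37 °C in DMEM/10% FCS.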

SMILES	IC50 [nM]
CC(C)C[C@H]1NC(=O)[C@H](C)N(C)C(=O)[C@H](Cc2ccc(OCC(=O)O)cc2)NC(=O)[C@H](Cc2ccc(-c3ccccc3)cc2)NC(=O)[C@H](Cc2ccc(OCC(=O)O)cc2)NC(=O)[C@H](Cc2c[nH]c3ccccc23)NC(=O)[C@H](CC(=O)O)NC(=O)[C@H](Cc2ccc(OCC(=O)O)cc2)NC(=O)[C@H]([C@@H](C)O)NC(=O)CSC[C@@H](C(=O)N[C@@H](CCN)C(=O)NCCOCCOCC(=O)NCCCCCCCCCCC(=O)O)NC(=O)[C@H](CO)NC(=O)[C@H](C(C)C)NC(=O)[C@H](CC2CCCCC2)NC(=O)[C@H](CCN)NC1=O [Example 1391] ({CH2CO}-TY(Carboxymethyl)DWY(Carboxymethyl)[Bip]Y(Carboxymethyl)[NMeA][dL][Dab][Cha]VSC[Dab][AEEA][Aun]-OH; thioether N-14)	25.8
CC(C)C[C@H]1NC(=O)[C@H](C)N(C)C(=O)[C@H](Cc2ccc(OCC(=O)O)cc2)NC(=O)[C@H](Cc2ccc(-c3ccccc3)cc2)NC(=O)[C@H](Cc2ccc(OCC(=O)O)cc2)NC(=O)[C@H](Cc2c[nH]c3ccccc23)NC(=O)[C@H](CC(=O)O)NC(=O)[C@H](Cc2ccc(OCC(=O)O)cc2)NC(=O)[C@H]([C@@H](C)O)NC(=O)CSC[C@@H](C(=O)N[C@@H](CCN)C(=O)NCCOCCOCC(=O)NCCCCCCCCCCC(=O)O)NC(=O)[C@H](CCC(=O)O)NC(=O)[C@H](C(C)C)NC(=O)[C@H](CC2CCCCC2)NC(=O)[C@H](CCN)NC1=O [Example 1392] ({CH2CO}-TY(Carboxymethyl)DWY(Carboxymethyl)[Bip]Y(Carboxymethyl)[NMeA][dL][Dab][Cha]VEC[Dab][AEEA][Aun]-OH; thioether N-14)	62.5
CC(C)C[C@H]1NC(=O)[C@H](C)N(C)C(=O)[C@H](Cc2ccc(OCC(=O)O)cc2)NC(=O)[C@H](Cc2ccc(-c3ccccc3)cc2)NC(=O)[C@H](Cc2ccc(OCC(=O)O)cc2)NC(=O)[C@H](Cc2c[nH]c3ccccc23)NC(=O)[C@H](CC(=O)O)NC(=O)[C@H](Cc2ccc(OCC(=O)O)cc2)NC(=O)[C@H]([C@@H](C)O)NC(=O)CSC[C@@H](C(=O)N[C@@H](CCN)C(=O)NCCOCCOCC(=O)NCCCCCCCCCCC(=O)O)NC(=O)[C@H](CC(N)=O)NC(=O)[C@H](C(C)C)NC(=O)[C@H](CC2CCCCC2)NC(=O)[C@H](CCN)NC1=O [Example 1393] ({CH2CO}-TY(Carboxymethyl)DWY(Carboxymethyl)[Bip]Y(Carboxymethyl)[NMeA][dL][Dab][Cha]VNC[Dab][AEEA][Aun]-OH; thioether N-14)	33.1
CC(C)C[C@H]1NC(=O)[C@H](C)N(C)C(=O)[C@H](Cc2ccc(OCC(=O)O)cc2)NC(=O)[C@H](Cc2ccc(-c3ccccc3)cc2)NC(=O)[C@H](Cc2ccc(OCC(=O)O)cc2)NC(=O)[C@H](Cc2c[nH]c3ccccc23)NC(=O)[C@H](CC(=O)O)NC(=O)[C@H](Cc2ccc(OCC(=O)O)cc2)NC(=O)[C@H]([C@@H](C)O)NC(=O)CSC[C@@H](C(=O)N[C@@H](CCCN)C(=O)NCCOCCOCC(=O)NCCCCCCCCCCC(=O)O)NC(=O)[C@H]([C@@H](C)O)NC(=O)[C@H](C(C)C)NC(=O)[C@H](CC2CCCCC2)NC(=O)[C@H](CCN)NC1=O [Example 1394] ({CH2CO}-TY(Carboxymethyl)DWY(Carboxymethyl)[Bip]Y(Carboxymethyl)[NMeA][dL][Dab][Cha]VTC[Orn][AEEA][Aun]-OH; thioether N-14)	143
CC(C)C[C@H]1NC(=O)[C@H](C)N(C)C(=O)[C@H](Cc2ccc(OCC(=O)O)cc2)NC(=O)[C@H](Cc2ccc(-c3ccccc3)cc2)NC(=O)[C@H](Cc2ccc(OCC(=O)O)cc2)NC(=O)[C@H](Cc2c[nH]c3ccccc23)NC(=O)[C@H](CC(=O)O)NC(=O)[C@H](Cc2ccc(OCC(=O)O)cc2)NC(=O)[C@H]([C@@H](C)O)NC(=O)CSC[C@@H](C(=O)N[C@@H](CCCN)C(=O)NCCOCCOCC(=O)NCCCCCCCCCCC(=O)O)NC(=O)[C@H](CO)NC(=O)[C@H](C(C)C)NC(=O)[C@H](CC2CCCCC2)NC(=O)[C@H](CCN)NC1=O [Example 1395] ({CH2CO}-TY(Carboxymethyl)DWY(Carboxymethyl)[Bip]Y(Carboxymethyl)[NMeA][dL][Dab][Cha]VSC[Orn][AEEA][Aun]-OH; thioether N-14)	56.5
CC(C)C[C@H]1NC(=O)[C@H](C)N(C)C(=O)[C@H](Cc2ccc(OCC(=O)O)cc2)NC(=O)[C@H](Cc2ccc(-c3ccccc3)cc2)NC(=O)[C@H](Cc2ccc(OCC(=O)O)cc2)NC(=O)[C@H](Cc2c[nH]c3ccccc23)NC(=O)[C@H](CC(=O)O)NC(=O)[C@H](Cc2ccc(OCC(=O)O)cc2)NC(=O)[C@H]([C@@H](C)O)NC(=O)CSC[C@@H](C(=O)N[C@@H](CCCN)C(=O)NCCOCCOCC(=O)NCCCCCCCCCCC(=O)O)NC(=O)[C@H](CCC(=O)O)NC(=O)[C@H](C(C)C)NC(=O)[C@H](CC2CCCCC2)NC(=O)[C@H](CCN)NC1=O [Example 1396] ({CH2CO}-TY(Carboxymethyl)DWY(Carboxymethyl)[Bip]Y(Carboxymethyl)[NMeA][dL][Dab][Cha]VEC[Orn][AEEA][Aun]-OH; thioether N-14)	304
CC(C)C[C@H]1NC(=O)[C@H](C)N(C)C(=O)[C@H](Cc2ccc(OCC(=O)O)cc2)NC(=O)[C@H](Cc2ccc(-c3ccccc3)cc2)NC(=O)[C@H](Cc2ccc(OCC(=O)O)cc2)NC(=O)[C@H](Cc2c[nH]c3ccccc23)NC(=O)[C@H](CC(=O)O)NC(=O)[C@H](Cc2ccc(OCC(=O)O)cc2)NC(=O)[C@H]([C@@H](C)O)NC(=O)CSC[C@@H](C(=O)N[C@@H](CCCN)C(=O)NCCOCCOCC(=O)NCCCCCCCCCCC(=O)O)NC(=O)[C@H](CC(N)=O)NC(=O)[C@H](C(C)C)NC(=O)[C@H](CC2CCCCC2)NC(=O)[C@H](CCN)NC1=O [Example 1397] ({CH2CO}-TY(Carboxymethyl)DWY(Carboxymethyl)[Bip]Y(Carboxymethyl)[NMeA][dL][Dab][Cha]VNC[Orn][AEEA][Aun]-OH; thioether N-14)	123
CC(C)C[C@H]1NC(=O)[C@H](C)N(C)C(=O)[C@H](Cc2ccc(OCC(=O)O)cc2)NC(=O)[C@H](Cc2ccc(-c3ccccc3)cc2)NC(=O)[C@H](Cc2ccc(OCC(=O)O)cc2)NC(=O)[C@H](Cc2c[nH]c3ccccc23)NC(=O)[C@H](CC(=O)O)NC(=O)[C@H](Cc2ccc(OCC(=O)O)cc2)NC(=O)[C@H]([C@@H](C)O)NC(=O)CSC[C@@H](C(=O)N[C@@H](CCN)C(=O)NCCOCCOCC(=O)NCCCCCCCCCCC(=O)O)NC(=O)[C@H]([C@@H](C)O)NC(=O)[C@H](C(C)C)NC(=O)[C@H](CC2CCCCC2)NC(=O)[C@H](CCC(=O)O)NC1=O [Example 1398] ({CH2CO}-TY(Carboxymethyl)DWY(Carboxymethyl)[Bip]Y(Carboxymethyl)[NMeA][dL]E[Cha]VTC[Dab][AEEA][Aun]-OH; thioether N-14)	85.5
CC(C)C[C@H]1NC(=O)[C@H](C)N(C)C(=O)[C@H](Cc2ccc(OCC(=O)O)cc2)NC(=O)[C@H](Cc2ccc(-c3ccccc3)cc2)NC(=O)[C@H](Cc2ccc(OCC(=O)O)cc2)NC(=O)[C@H](Cc2c[nH]c3ccccc23)NC(=O)[C@H](CC(=O)O)NC(=O)[C@H](Cc2ccc(OCC(=O)O)cc2)NC(=O)[C@H]([C@@H](C)O)NC(=O)CSC[C@@H](C(=O)N[C@@H](CCN)C(=O)NCCOCCOCC(=O)NCCCCCCCCCCC(=O)O)NC(=O)[C@H](CO)NC(=O)[C@H](C(C)C)NC(=O)[C@H](CC2CCCCC2)NC(=O)[C@H](CCC(=O)O)NC1=O [Example 1399] ({CH2CO}-TY(Carboxymethyl)DWY(Carboxymethyl)[Bip]Y(Carboxymethyl)[NMeA][dL]E[Cha]VSC[Dab][AEEA][Aun]-OH; thioether N-14)	68.8
CC(C)C[C@H]1NC(=O)[C@H](C)N(C)C(=O)[C@H](Cc2ccc(OCC(=O)O)cc2)NC(=O)[C@H](Cc2ccc(-c3ccccc3)cc2)NC(=O)[C@H](Cc2ccc(OCC(=O)O)cc2)NC(=O)[C@H](Cc2c[nH]c3ccccc23)NC(=O)[C@H](CC(=O)O)NC(=O)[C@H](Cc2ccc(OCC(=O)O)cc2)NC(=O)[C@H]([C@@H](C)O)NC(=O)CSC[C@@H](C(=O)N[C@@H](CCN)C(=O)NCCOCCOCC(=O)NCCCCCCCCCCC(=O)O)NC(=O)[C@H](CCCN)NC(=O)[C@H](C(C)C)NC(=O)[C@H](CC2CCCCC2)NC(=O)[C@H](CCC(=O)O)NC1=O [Example 1400] ({CH2CO}-TY(Carboxymethyl)DWY(Carboxymethyl)[Bip]Y(Carboxymethyl)[NMeA][dL]E[Cha]V[Orn]C[Dab][AEEA][Aun]-OH; thioether N-14)	306
CC(C)C[C@H]1NC(=O)[C@H](C)N(C)C(=O)[C@H](Cc2ccc(OCC(=O)O)cc2)NC(=O)[C@H](Cc2ccc(-c3ccccc3)cc2)NC(=O)[C@H](Cc2ccc(OCC(=O)O)cc2)NC(=O)[C@H](Cc2c[nH]c3ccccc23)NC(=O)[C@H](CC(=O)O)NC(=O)[C@H](Cc2ccc(OCC(=O)O)cc2)NC(=O)[C@H]([C@@H](C)O)NC(=O)CSC[C@@H](C(=O)N[C@@H](CCN)C(=O)NCCOCCOCC(=O)NCCCCCCCCCCC(=O)O)NC(=O)[C@H](CC(N)=O)NC(=O)[C@H](C(C)C)NC(=O)[C@H](CC2CCCCC2)NC(=O)[C@H](CCC(=O)O)NC1=O [Example 1401] ({CH2CO}-TY(Carboxymethyl)DWY(Carboxymethyl)[Bip]Y(Carboxymethyl)[NMeA][dL]E[Cha]VNC[Dab][AEEA][Aun]-OH; thioether N-14)	63.9
Cc1cccc(C[C@@H]2NC(=O)[C@H](CC(=O)O)NC(=O)[C@H](Cc3ccc(OCC(=O)O)cc3)NC(=O)[C@@H]([C@H](C)O)NC(=O)CSC[C@@H](C(=O)NCCOCCOCC(=O)NCCCCCCCCCCC(=O)O)NC(=O)[C@H]([C@@H](C)O)NC(=O)[C@H](C(C)C)NC(=O)[C@H](CC3CCCCC3)NC(=O)[C@H](CCN)NC(=O)[C@@H](CC(C)C)NC(=O)[C@H](C)N(C)C(=O)[C@H](CCCNC(N)=O)NC(=O)[C@H](Cc3ccc(-c4ccccc4)cc3)NC(=O)[C@H](C(C)C)NC2=O)c1 [Example 1402] ({CH2CO}-[dT]Y(Carboxymethyl)D[Phe(3-Me)]V[Bip][Cit][NMeA][dL][Dab][Cha]VTC[AEEA][Aun]-OH; thioether N-14)	203
